Assay results published in article PMC11784026, “Phase 1 study of the safety, tolerability, and pharmacokinetics of a synthetic macrocyclic peptide antibiotic (BRII-693) in healthy adult participants” (Antimicrobial Agents and Chemotherapy, 2024).
Read-outs that look alike come from different tables or passages of the source. Where a SMILES comes first, the peptide text is derived from it. Bridges are numbered along the chain shown (N, C = ends). [ ]: non-standard residue; d: D form. The star is where a group is joined. X1 = O=C(c1ccc(Cl)cc1Cl)*; Dab = NCC[C@H](N)C(=O)O; Abu = CC[C@H](N)C(=O)O; Dap = NC[C@H](N)C(=O)O

Key:
[1] = Plasma pharmacokinetics after multiple ascending doses (MAD), phase 1; format: in vivo, human (healthy adult participants); settings: human, plasma, iv; for Vd: read-out: VZ; for Tmax: read-out: Tmax
Experimental: Participants were discharged on day 11.
Plasma and urine PK parameters were summarized for each cohort using descriptive statistics. Analyses using linear models were performed to assess dose proportionality (both single-dose cohorts 1–7 and multiple-dose cohorts 8–10). Dose-linearity of Cmax and AUC across the dose range was assessed by fitting the power model with ln-transformed parameter as response variables and ln-transformed dose (continuous variable) as a fixed effect. For each PK parameter and study phase (SAD or MAD) separately, a pooled estimate (across all dose cohorts) of slope, corresponding 95% confidence interval (CI), and between-subject coefficient of variation (CV) were calculated. Dose proportionality was to be concluded if the 95% CI for the slope spans 1. […] Least square means (LSMs) and difference in LSMs with 90% CI were calculated; these values were then back exponentiated to give the geometric LSM, geometric mean ratio, and 90% CI.

[2] = 150 mg, Last q6h dose (day 9), 7-day MAD 150 mg q6h × 7, n = 5, arithmetic mean ± SD
[3] = 150 mg, Last q6h dose (day 14), 14-day MAD 150 mg q6h × 14, Chinese, n = 6, arithmetic mean ± SD
[4] = 150 mg, Last q6h dose (day 14), 14-day MAD 150 mg q6h × 14, non-Chinese, n = 10, arithmetic mean ± SD
[5] = 200 mg, First q6h dose (day 3), 7-day MAD 200 mg q6h × 7, n = 4, arithmetic mean ± SD
[6] = 200 mg, Last q6h dose (day 9), 7-day MAD 200 mg q6h × 7, n = 5, arithmetic mean ± SD

CC[C@@H]1NC(=O)[C@@H](CC(C)C)NC(=O)[C@H](CCN)NC(=O)[C@@H](NC(=O)[C@H](CN)NC(=O)[C@@H](NC(=O)[C@H](CCN)NC(=O)c2ccc(Cl)cc2Cl)[C@@H](C)O)CCNC(=O)[C@H]([C@@H](C)O)NC(=O)[C@H](CCN)NC(=O)[C@H](CCN)NC1=O [BRII-693] (X1-[Dab]T[Dap][Dab][Dab][dL][Abu][Dab][Dab]T; lactam 4-C; N-terminus assumed)
clearance [1, 2]: 69.2 mL/min | half-life [1, 2]: 6.76 ± 0.35 h | AUC(0-t) ([1]; 150 mg, Last q6h dose (day 9), 7-day MAD 150 mg q6h × 7, n = 5, arithmetic mean ± SD, read-out: AUC0–6h): 36600 ± 4360 ng·h/mL | Vd [1, 2]: 40.9 ± 9.47 L | Tmax ([1]; 150 mg, Last q6h dose (day 9), 7-day MAD 150 mg q6h × 7, n = 5, median (range)): 1.07 h | Cmax ([1]; 150 mg, Last q6h dose (day 9), 7-day MAD 150 mg q6h × 7, plasma, n = 5, arithmetic mean ± SD): 11700 ± 1540 ng/mL | clearance [1, 3]: 59.5 mL/min | half-life [1, 3]: 12.4 ± 6.92 h | AUC(0-t) ([1]; 150 mg, Last q6h dose (day 14), 14-day MAD 150 mg q6h × 14, Chinese, n = 6, arithmetic mean ± SD, read-out: AUC0–6h): 42500 ± 4960 ng·h/mL | Vd [1, 3]: 61.9 ± 30.2 L | Cmax [1, 3]: 13300 ± 1500 ng/mL | clearance [1, 4]: 64.7 mL/min | half-life [1, 4]: 15.6 ± 11.7 h | AUC(0-t) ([1]; 150 mg, Last q6h dose (day 14), 14-day MAD 150 mg q6h × 14, non-Chinese, n = 10, arithmetic mean ± SD, read-out: AUC0–6h): 39900 ± 7150 ng·h/mL | Vd [1, 4]: 81.4 ± 55.6 L | Cmax [1, 4]: 12700 ± 1780 ng/mL | Cmax ([1]; 200 mg, First q6h dose (day 3), 7-day MAD 200 mg q6h × 7, 1-h IV infusion, n = 5, arithmetic mean ± SD): 13500 ± 4430 ng/mL | clearance [1, 5]: 76.3 mL/min | Vd [1, 5]: 15.7 ± 5.81 L | half-life ([1]; 200 mg, First q6h dose (day 3), 7-day MAD 200 mg q6h × 7, n = 5, arithmetic mean ± SD): 2.49 ± 0.51 h | AUC(0-t) ([1]; 200 mg, First q6h dose (day 3), 7-day MAD 200 mg q6h × 7, n = 5, arithmetic mean ± SD, read-out: AUC0-6h): 36800 ± 10100 ng·h/mL | Tmax ([1]; 200 mg, First q6h dose (day 3), 7-day MAD 200 mg q6h × 7, n = 5, median (range)): 1.08 h | clearance [1, 6]: 57.8 mL/min | half-life [1, 6]: 7.58 ± 0.93 h | AUC(0-t) ([1]; 200 mg, Last q6h dose (day 9), 7-day MAD 200 mg q6h × 7, n = 5, arithmetic mean ± SD, read-out: AUC0–6h): 61300 ± 15700 ng·h/mL | Vd [1, 6]: 37.3 ± 8.4 L | Tmax ([1]; 200 mg, Last q6h dose (day 9), 7-day MAD 200 mg q6h × 7, n = 5, median (range)): 1.1 h | Cmax ([1]; 200 mg, Last q6h dose (day 9), 7-day MAD 200 mg q6h × 7, plasma, n = 5, arithmetic mean ± SD): 18300 ± 4150 ng/mL | Participants reporting AEs (7-day MAD cohorts 8–10, after multiple dosing, all BRII-693-treated (5 of 17)): 29.4% | Participants reporting AEs (7-day MAD cohorts 8–10, after single dosing on day 1, all BRII-693-treated (3 of 17)): 17.6% | Participants who discontinued the study due to treatment-related AE (headache, moderate) (7-day MAD, 200 mg, after the single dose on day 1 (One of 6)): 16.7% | Participants reporting AEs (7-day MAD, after multiple dosing, 100 mg q6h (2 of 6)): 33.3% | Participants reporting AEs (7-day MAD, after multiple dosing, 200 mg q6h (3 of 6)): 50.0% | Participants reporting AEs (7-day MAD, after single dosing on day 1, 150 mg (1 of 5)): 20.0% | Participants reporting AEs (7-day MAD, after single dosing on day 1, 200 mg (2 of 6)): 33.3% | Participants reporting AEs (SAD phase, 100 mg (1 of 6)): 16.7% | Participants reporting AEs (SAD phase, 200 mg (1 of 6)): 16.7% | Severity of AEs (SAD phase, all AEs (five events, placebo included)): mild in severity | Participants reporting AEs (SAD phase, all BRII-693-treated participants (2 of 41)): 4.9% | Participants reporting AEs (cohort 11, 150 mg q6h × 14 days, non-Chinese (5 of 10)): 50.0% | Participants reporting AEs (cohort 12, 150 mg q6h × 14 days, Chinese (Five of the 10)): 50.0% | Overall safety and tolerability (in vivo, iv): safe and well tolerated
